{"source": "patent US8143288B2", "about": "“Inhibitors of HCV replication” (priority 2005, dated 2012)"}
{"test_system": "HCV 1b-377-neo replicon cells", "assay": "HCV replicon FRET assay", "format": "cell-based", "details": "Hepatitis C virus, read-out: Activity (EC50)", "units": {"EC50": "nM"}}
{"smiles": "CC(C)(C)OC(=O)Nc1ccccc1C(=O)N1CCC[C@H]1C(=O)Nc1ccc(/C=C/c2ccc(NC(=O)[C@@H]3CCCN3C(=O)c3ccccc3NC(=O)OC(C)(C)C)cc2)cc1", "note": "[Example 150]", "EC50": "1000 to 10000"}
{"test_system": "HCV 1b-377-neo replicon cells", "assay": "HCV replicon FRET assay", "format": "cell-based", "details": "Hepatitis C virus; HCV replicon; read-out: Activity (EC50)", "units": {"EC50": "nM"}}
{"smiles": "O=C(Nc1ccc(/C=C/c2ccc(NC(=O)[C@@H]3CCCN3C(=O)c3ccccc3NCc3ccccc3)cc2)cc1)[C@@H]1CCCN1C(=O)c1ccccc1NCc1ccccc1", "note": "[Example 141]", "EC50": "1000 to 10000"}
{"smiles": "COc1ccccc1C(=O)N1CCC[C@H]1C(=O)Nc1ccc(/C=C/c2ccc(NC(=O)[C@@H]3CCCN3C(=O)Cc3cccnc3)cc2)cc1", "note": "[Example 142]", "EC50": "100 to 1000"}
{"smiles": "CCc1ccccc1C(=O)N1CCC[C@H]1C(=O)Nc1ccc(/C=C/c2ccc(NC(=O)[C@@H]3CCCN3C(=O)Cc3cccnc3)cc2)cc1", "note": "[Example 143]", "EC50": "100 to 1000"}
{"smiles": "CN(C)c1ccccc1C(=O)N1CCC[C@H]1C(=O)Nc1ccc(/C=C/c2ccc(NC(=O)[C@@H]3CCCN3C(=O)c3ccccc3N(C)C)cc2)cc1", "note": "[Example 144]", "EC50": "1000 to 10000"}
{"smiles": "COc1ccc(OC)c(C(=O)N2CCC[C@H]2C(=O)Nc2ccc(/C=C/c3ccc(NC(=O)[C@@H]4CCCN4C(=O)c4cc(OC)ccc4OC)cc3)cc2)c1", "note": "[Example 145]", "EC50": "100 to 1000"}
{"smiles": "COc1cccc(C(=O)N2CCC[C@H]2C(=O)Nc2ccc(/C=C/c3ccc(NC(=O)[C@@H]4CCCN4C(=O)c4cccc(OC)c4OC)cc3)cc2)c1OC", "note": "[Example 146]", "EC50": "1000 to 10000"}
{"smiles": "O=C(Nc1ccc(/C=C/c2ccc(NC(=O)[C@@H]3CCCN3C(=O)c3ccccc3Oc3ccccc3)cc2)cc1)[C@@H]1CCCN1C(=O)c1ccccc1Oc1ccccc1", "note": "[Example 147]", "EC50": "100 to 1000"}
{"smiles": "O=C(Nc1ccc(/C=C/c2ccc(NC(=O)[C@@H]3CCCN3C(=O)c3ccccc3OCc3ccccc3)cc2)cc1)[C@@H]1CCCN1C(=O)c1ccccc1OCc1ccccc1", "note": "[Example 148]", "EC50": "1000 to 10000"}
{"smiles": "O=C(Nc1ccc(/C=C/c2ccc(NC(=O)[C@@H]3CCCN3C(=O)c3cccc4cc[nH]c34)cc2)cc1)[C@@H]1CCCN1C(=O)c1cccc2cc[nH]c12", "note": "[Example 149]", "EC50": "100 to 1000"}
{"smiles": "O=C(Nc1ccc(/C=C/c2ccc(NC(=O)[C@@H]3CCCN3C(=O)c3ccccc3NCc3ccccc3)cc2)cc1)[C@@H]1CCCN1C(=O)Cc1cccnc1", "note": "[Example 151]", "EC50": "100 to 1000"}
{"smiles": "O=C(Nc1ccc(/C=C/c2ccc(NC(=O)[C@@H]3CCCN3C(=O)c3ccccc3NCc3ccccc3)cc2)cc1)[C@@H]1CCCN1C(=O)CC1CC1", "note": "[Example 152]", "EC50": "100 to 1000"}
{"smiles": "CC(=O)N1CCC[C@H]1C(=O)Nc1ccc(/C=C/c2ccc(NC(=O)[C@@H]3CCCN3C(=O)c3ccccc3NCc3ccccc3)cc2)cc1", "note": "[Example 153]", "EC50": "1000 to 10000"}
{"smiles": "O=C(Nc1ccc(/C=C/c2ccc(NC(=O)[C@@H]3CCCN3C(=O)C3CC(=O)N(Cc4cccs4)C3)cc2)cc1)[C@@H]1CCCN1C(=O)C1CC(=O)N(Cc2cccs2)C1", "note": "(stereo partly shown) [Example 154]", "EC50": "1000 to 10000"}
{"smiles": "CCn1nc(C)cc1C(=O)N1CCC[C@H]1C(=O)Nc1ccc(/C=C/c2ccc(NC(=O)[C@@H]3CCCN3C(=O)c3cc(C)nn3CC)cc2)cc1", "note": "[Example 155]", "EC50": "0.1 to 90"}
{"smiles": "O=C(Nc1ccc(/C=C/c2ccc(NC(=O)[C@@H]3CCCN3C(=O)C3CC(=O)N(CCc4cccs4)C3)cc2)cc1)[C@@H]1CCCN1C(=O)C1CC(=O)N(CCc2cccs2)C1", "note": "(stereo partly shown) [Example 156]", "EC50": "1000 to 10000"}
{"smiles": "CN1CCC[C@H]1C(=O)N1CCC[C@H]1C(=O)Nc1ccc(/C=C/c2ccc(NC(=O)[C@@H]3CCCN3C(=O)[C@@H]3CCCN3C)cc2)cc1", "note": "[Example 157]", "EC50": "1000 to 10000"}
{"smiles": "CCOc1ccccc1C(=O)N1CCC[C@H]1C(=O)Nc1ccc(/C=C/c2ccc(NC(=O)[C@@H]3CCCN3C(=O)c3ccccc3OCC)cc2)cc1", "note": "[Example 158]", "EC50": "1000 to 10000"}
{"smiles": "CCCOc1cccnc1C(=O)N1CCC[C@H]1C(=O)Nc1ccc(/C=C/c2ccc(NC(=O)[C@@H]3CCCN3C(=O)c3ncccc3OCCC)cc2)cc1", "note": "[Example 159]", "EC50": "1000 to 10000"}
{"smiles": "CCOc1ncccc1C(=O)N1CCC[C@H]1C(=O)Nc1ccc(/C=C/c2ccc(NC(=O)[C@@H]3CCCN3C(=O)c3cccnc3OCC)cc2)cc1", "note": "[Example 160]", "EC50": "1000 to 10000"}
{"smiles": "O=C(Nc1ccc(/C=C/c2ccc(NC(=O)[C@@H]3CCCN3C(=O)c3ccccc3NCc3ccccn3)cc2)cc1)[C@@H]1CCCN1C(=O)c1ccccc1NCc1ccccn1", "note": "[Example 161]", "EC50": "1000 to 10000"}
{"smiles": "CN(Cc1ccccc1)c1ccccc1C(=O)N1CCC[C@H]1C(=O)Nc1ccc(/C=C/c2ccc(NC(=O)[C@@H]3CCCN3C(=O)c3ccccc3N(C)Cc3ccccc3)cc2)cc1", "note": "[Example 162]", "EC50": "1000 to 10000"}
{"smiles": "O=C(Nc1ccc(/C=C/c2ccc(NC(=O)[C@@H]3CCCN3C(=O)c3cccc4ccccc34)cc2)cc1)[C@@H]1CCCN1C(=O)c1cccc2ccccc12", "note": "[Example 163]", "EC50": "1000 to 10000"}
{"smiles": "O=C(Nc1ccc(/C=C/c2ccc(NC(=O)[C@@H]3CCCN3C(=O)[C@@H]3CCCN3Cc3ccccc3)cc2)cc1)[C@@H]1CCCN1C(=O)[C@@H]1CCCN1Cc1ccccc1", "note": "[Example 164]", "EC50": "1000 to 10000"}
{"smiles": "O=C(Nc1ccc(/C=C/c2ccc(NC(=O)[C@@H]3CCCN3C(=O)c3cccc4c3Cc3ccccc3-4)cc2)cc1)[C@@H]1CCCN1C(=O)c1cccc2c1Cc1ccccc1-2", "note": "[Example 165]", "EC50": "1000 to 10000"}
{"smiles": "O=C(Nc1ccc(/C=C/c2ccc(NC(=O)[C@@H]3CCCN3C(=O)c3ccccc3-c3ccccc3)cc2)cc1)[C@@H]1CCCN1C(=O)c1ccccc1-c1ccccc1", "note": "[Example 166]", "EC50": "1000 to 10000"}
{"smiles": "O=C(Nc1ccc(/C=C/c2ccc(NC(=O)[C@@H]3CCCN3C(=O)Cc3ccccc3OCc3ccccc3)cc2)cc1)[C@@H]1CCCN1C(=O)Cc1ccccc1OCc1ccccc1", "note": "[Example 167]", "EC50": "1000 to 10000"}
{"smiles": "O=C(Nc1ccc(/C=C/c2ccc(NC(=O)[C@@H]3CCCN3C(=O)Cc3ccccc3Oc3ccccc3)cc2)cc1)[C@@H]1CCCN1C(=O)Cc1ccccc1Oc1ccccc1", "note": "[Example 168]", "EC50": "1000 to 10000"}
{"smiles": "O=C(Nc1ccc(/C=C/c2ccc(NC(=O)[C@@H]3CCCN3C(=O)c3ccccc3CCc3ccccc3)cc2)cc1)[C@@H]1CCCN1C(=O)c1ccccc1CCc1ccccc1", "note": "[Example 169]", "EC50": "100 to 1000"}
{"smiles": "O=C(Nc1ccc(/C=C/c2ccc(NC(=O)[C@@H]3CCCN3C(=O)c3ccccc3NCc3ccco3)cc2)cc1)[C@@H]1CCCN1C(=O)c1ccccc1NCc1ccco1", "note": "[Example 170]", "EC50": "100 to 1000"}
{"smiles": "O=C(Nc1ccc(/C=C/c2ccc(NC(=O)[C@@H]3CCCN3C(=O)c3ccccc3Cc3ccccc3)cc2)cc1)[C@@H]1CCCN1C(=O)c1ccccc1Cc1ccccc1", "note": "[Example 171]", "EC50": "100 to 1000"}
{"smiles": "O=C(Nc1ccc(/C=C/c2ccc(NC(=O)[C@@H]3CCCN3C(=O)c3ccccc3N3CCCCC3)cc2)cc1)[C@@H]1CCCN1C(=O)c1ccccc1N1CCCCC1", "note": "[Example 172]", "EC50": "1000 to 10000"}
{"smiles": "CCOc1ccccc1CC(=O)N1CCC[C@H]1C(=O)Nc1ccc(/C=C/c2ccc(NC(=O)[C@@H]3CCCN3C(=O)Cc3ccccc3OCC)cc2)cc1", "note": "[Example 173]", "EC50": "1000 to 10000"}
{"smiles": "O=C(c1ccccc1)c1cccnc1C(=O)N1CCC[C@H]1C(=O)Nc1ccc(/C=C/c2ccc(NC(=O)[C@@H]3CCCN3C(=O)c3ncccc3C(=O)c3ccccc3)cc2)cc1", "note": "[Example 174]", "EC50": "100 to 1000"}
{"smiles": "CCCc1c(C(=O)N2CCC[C@H]2C(=O)Nc2ccc(/C=C/c3ccc(NC(=O)[C@@H]4CCCN4C(=O)c4cnn(-c5ccccc5)c4CCC)cc3)cc2)cnn1-c1ccccc1", "note": "[Example 175]", "EC50": "1000 to 10000"}
{"smiles": "O=C(Nc1ccc(/C=C/c2ccc(NC(=O)[C@@H]3CCCN3C(=O)c3ccccn3)cc2)cc1)[C@@H]1CCCN1C(=O)c1ccccn1", "note": "[Example 176]", "EC50": "1000 to 10000"}
{"smiles": "Cc1cccnc1C(=O)N1CCC[C@H]1C(=O)Nc1ccc(/C=C/c2ccc(NC(=O)[C@@H]3CCCN3C(=O)c3ncccc3C)cc2)cc1", "note": "[Example 177]", "EC50": "1000 to 10000"}
